Reference: patent US5183736A, “Methods using estrogen receptor as a constitutive transcriptional activator and a repressor” (La Jolla Cancer Research Foundation, priority 1990, dated 1993)
“Also recorded” adds a separate entry of the source. Values belong to the molecule of their own block, whether it stands above or below them.

Tests used:
ER-TRα hybrid receptor = assay: ERE-CAT activation by hybrid receptor ER-TRα alone in CV-1 cells; assay type: cell-based, human; conditions: 10^-7 M T3, FIG. 5
Procedure: (§1) A representative experiment is shown.
(§2) The transient transfection was performed as follows. […] After 24 h cultures were washed with PBS and new medium was added. A modified calcium phosphate precipitation procedure was used for transient transfection^20. 18 h after transfections, cultures were washed twice with PBS, and fresh medium was added together with the desired amount of hormone. After 24 h. cells were collected and cell extract was prepared. β-gal assay was performed as described^21. CAT activity was assayed by using ^3 H-acetylated chloramphenicol and a mixed-phase scintillation measurement, as described in reference 22, below. CPM corrected for β-gal activity represents relative CAT activity. ERE-CAT was constructed by inserting the above synthetic ERE-oligonucleotide with BglII linkers into the BamH1 site of pBLCAT2^23.

ERval [1] = assay: gel retardation assay, ERval binding to 32P-labelled ERE; design: species or system human; conditions: for effect on binding of ERval to the ERE: high concentrations, FIG. 2b
Procedure: (§3) (a) DNA binding of ER and ER mutants. […] As control, the labelled ERE (lane 1) and the lysate (lane 2) were run alone. Binding of receptors to labelled ERE was competed with 50 fold excess of unlabelled ERE(S) or nonspecific unlabelled oligonucleotides (N).
(§4) To investigate the ER protein-DNA interaction gel retardation assays were performed^5,13. Receptor proteins were synthesized by in vitro transcription/translation^5,7, incubated with ^32 P-labelled ERE, and run on a non-denaturing acrylamide gel (FIG. 2a). The assay was performed as follows. ER and ERval cDNA cloned in Bluescript (Stratagene) were transcribed using T7 or T3 RNA polymerase, and translated, using rabbit reticulocyte translation system (Promega) as described^5. 5 μl of in vitro translated receptor protein were incubated with ^32 P labeled ERE fragment in a reaction mixture containing 20 mM Hepes buffer pH 7.9, 50 mM KCl, 1 mM DTT, 2.5 mM MgCl2, 10% glycerol, and 1 μg poly (dI-dC) at 25° C. for 20 min. Reaction mixtures were loaded on a 5% non-denaturing polyacrylamide gel containing 10 mM HEPES pH 7.9 and 3.3 mM sodium acetate pH 7.9, and electrophoresed. Gels were run at 4° C., 140 V for 3 h with continued circulation of buffer.

ER = ER (Homo sapiens, UniProt P03372); conditions: 10^-8 M OH-Tam, 10^-7 M T3, FIG. 5
ER, sequence (P03372 whole entry): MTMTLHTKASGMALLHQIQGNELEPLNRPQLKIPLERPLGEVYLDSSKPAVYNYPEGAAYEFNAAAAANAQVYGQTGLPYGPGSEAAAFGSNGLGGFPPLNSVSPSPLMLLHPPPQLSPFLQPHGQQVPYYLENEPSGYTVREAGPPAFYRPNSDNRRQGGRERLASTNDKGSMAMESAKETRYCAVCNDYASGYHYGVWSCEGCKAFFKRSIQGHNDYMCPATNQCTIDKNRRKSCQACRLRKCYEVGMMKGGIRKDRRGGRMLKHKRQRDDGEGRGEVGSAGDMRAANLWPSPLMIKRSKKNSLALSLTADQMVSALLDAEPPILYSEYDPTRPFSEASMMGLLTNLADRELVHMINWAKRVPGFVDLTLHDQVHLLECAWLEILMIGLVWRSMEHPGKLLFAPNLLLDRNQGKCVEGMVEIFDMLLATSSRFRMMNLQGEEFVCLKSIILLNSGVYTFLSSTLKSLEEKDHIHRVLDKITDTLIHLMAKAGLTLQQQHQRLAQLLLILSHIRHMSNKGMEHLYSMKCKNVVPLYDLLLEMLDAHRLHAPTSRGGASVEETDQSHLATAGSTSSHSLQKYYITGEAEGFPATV
Procedure: as §1, §2

ER-ERE complex = assay: dissociation of the ER-ERE complex (gel retardation); assay type: binding, human; conditions: 10^-8 M ligand, 50 fold excess unlabelled ERE, 10° C., FIG. 6
Procedure: At time 0, a 50 fold excess of non-labelled ERE was added. After incubation at 10° C. for the indicated time intervals, aliquots were loaded on a running non-denaturing 5% polyacrylamide gel.
The assay was performed as follows.
To measure the stability of the ER-ERE complexes in the presence and absence of ligands, the dissociation of the complexes was analyzed (FIG. 6).

[2] = molecular target: human estrogen receptor (ER, wild type, GLY at position 400) (Homo sapiens, UniProt P03372)
human estrogen receptor (ER, wild type, GLY at position 400), sequence (P03372 whole entry): as above
Procedure: (§5) (a) Induction of CAT activity. CV-1 cells were transiently cotransfected with 2 μg of ERE-CAT reporter plasmid alone (control) or together with 1 μg of receptor expression vector and 3 μg of β-gal expression vector (pCH110, Pharmacia) which served as an internal control. Carrier DNA (Bluescript) was added to 23 μg total DNA. […] CAT activity is corrected for β-gal activity.
CV-1 cells were cotransfected with 2 μg ERE reporter plasmid alone (control) and with decreasing amounts of ER expression vector as indicated. […] A representative experiment is shown.
(§6) CV-1 cells were cotransfected as described under (a) using ER (c) or ERval (d) expression vectors and reporter plasmid.
(§7) CV-1 cells were transiently cotransfected with ER or ERval expression vectors and reporter plasmid as described in FIG. 1. […] CAT enzyme activities presented are corrected for transfection efficiency by measuring β-gal expression.
CV-1 cells were cotransfected as described above. […] CAT activities were measured as described.
To investigate the transcriptional regulatory properties of the human estrogen receptor, transient cotransfection experiments were carried out in which CV-1 cells were transfected with an estrogen receptor (ER) expression vector and an estrogen responsive CAT (chloramphenicol acetyl-transferase) reporter gene. We investigated the "wild type" receptor^9 that carries a GLY at position 400 (ER) and a mutant receptor that contains a VAL at position 400 (ERval). This mutant receptor was cloned from a human mammary carcinoma cell line cDNA library and was originally thought to represent the wild type hER^10,11. In addition we investigated another mutant receptor that we obtained by deleting the coding sequences for amino acids 442-498 (ERdel) of the hormone binding domain. The estrogen response element (ERE) we use here is a palindromic sequence ([…]) that is derived from the vitellogenin gene promoter^12.
as §2

ERval [3] = assay: repressor assay: ERval cotransfected with ER-TRα and ERE-CAT in CV-1 cells; assay type: cell-based, human; conditions: 10^-8 M OH-Tam, 10^-7 M T3, FIG. 5
Procedure: CAT activities were measured as described in the Example. A representative experiment is shown.
The transient transfection was performed as follows.

[4] = system: mutant estrogen receptor ERval (VAL at position 400); assay: transient cotransfection ERE-CAT reporter assay in CV-1 cells, ERval; assay type: cell-based, human
Procedure: as §5, §6, §7
To investigate the transcriptional regulatory properties of the human estrogen receptor, transient cotransfection experiments were carried out in which CV-1 cells were transfected with an estrogen receptor (ER) expression vector and an estrogen responsive CAT (chloramphenicol acetyl-transferase) reporter gene. We investigated the "wild type" receptor^9 that carries a GLY at position 400 (ER) and a mutant receptor that contains a VAL at position 400 (ERval). This mutant receptor was cloned from a human mammary carcinoma cell line cDNA library and was originally thought to represent the wild type hER^10,11. […]

[5] = system: TRα-ERval hybrid receptor; conditions: 10^-8 M E2, FIG. 4c
Procedure: as §4

ERdel = conditions: 10^-8 M E2, FIG. 2a
Procedure: as §3, §4

[6] = molecular target: ERval (estrogen receptor Val400) (Homo sapiens, UniProt P03372 P03372:1-595, G400V); assay: EMSA; with E2; conditions: tags: rabbit reticulocyte lysate; chain copies: 2; label: 32P
ERval (estrogen receptor Val400), sequence (P03372 whole entry G400V, one chain of several): as the sequence (P03372 whole entry) above, with G400V counted along it

[7] = molecular target: estrogen receptor alpha (ER, wild type, Gly400) (Homo sapiens, UniProt P03372 P03372:1-595); assay: EMSA; strong with and without E2 or Tam; 20 mM Hepes pH 7.9, 50 mM KCl, 2.5 mM MgCl2, poly(dI-dC), 25 C; dissociation not substantially changed by E2 or OH-Tam (FIG.); conditions: tags: rabbit reticulocyte lysate; chain copies: 2; label: 32P
estrogen receptor alpha (ER, wild type, Gly400), sequence (P03372 whole entry, one chain of several): as the sequence (P03372 whole entry) above

Molecule: N[C@@H](Cc1cc(I)c(Oc2ccc(O)c(I)c2)c(I)c1)C(=O)O [T3]
ERE-CAT gene expression by ER-TRα alone (ER-TRα hybrid receptor): efficiently enhances

Molecule: CC/C(=C(\c1ccccc1)c1ccc(OCCN(C)C)cc1)c1ccccc1 [Tam, tamoxifen]
effect on binding of ERval to the ERE (ERval [1]): drastically increase

Molecule: 4-hydroxytamoxifen [OH-Tam]
effect on binding of ERval to the ERE (ERval [1]): drastically increase
effect on repression capacity of ER towards ER-TRα (ER): slightly increases
effect on dissociation of the ER-DNA complex (ER-ERE complex): no substantial difference
OH-Tam concentration sufficient to repress E2 action on ER [2]: nanomolar concentrations
concentration dependence of the agonist effect on ER [2]: does not increase with increasing concentrations of ligand
effect on ER basal level activity [2]: do not significantly repress
effect on basal level activity of ER at very low receptor concentrations [2]: increases the basal level activity
effect on transcriptional enhancing activity of ER [2]: maintained at the constitutive basal level
repression of ER-TRα activity by ERval (ERval [3]): restores the ability of ERval to repress; also recorded: only an efficient repressor of ER-TRα in the presence of OH-Tam
effect on activation capacity of ERval ([4]; OH-Tam 10^-8 M, no E2, FIG. 3a): restores the basal gene activation capacity; also recorded: increased by OH-Tam (10^-8 M) to the basal level of ER wild type
effect on ERval activation capacity in the presence of E2 ([4]; OH-Tam with E2 10^-8 M, FIG. 3a): reduced to the wild type basal level

increase of affinity of TRα-ERval for DNA (TRE) [5]: several fold
Molecule: C[C@]12CC[C@@H]3c4ccc(O)cc4CC[C@H]3[C@@H]1CC[C@@H]2O [E2, estradiol]
binding of ERval to ERE with E2 (ERval [1]; 10^-8 M E2, FIG. 2a): binds strongly to ERE when E2 is included
binding of ERdel to DNA with and without E2 (ERdel): binds poorly to DNA in the presence and absence of E2

B1: ERE palindrome (dsDNA)
DNA 1: TCAGGTCACTGTGACCTGA
DNA 2: TCAGGTCACAGTGACCTGA
binding result [6]: binds
binding result [7]: binds
